The experiment has as its system P388 leukemia ip, CD2F1 mice, survival T/C. Nature of the experiment: NCI In Vivo Anticancer Drug Screen. Data for tumor model P388 Leukemia (intraperitoneal) in CD2F1 (CDF1) mice. The following applies: endpoint: median survival time, higher = longer survival. The gist of the method: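 Mice carrying the transplanted tumor received test compound or vehicle. Survival was recorded in each group, and the value is the treated-group measurement divided by that of the vehicle-treated control group.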

[1] abbreviates: dose: 50.0 mg/kg/injection, schedule: Q01DX009 (ip), vehicle: Klucel (hydroxypropylcellulose) (HPC).
[2] abbreviates: dose: 100.0 mg/kg/injection, schedule: Q01DX009 (ip), vehicle: Klucel (hydroxypropylcellulose) (HPC).
Where [3] appears, read: dose: 200.0 mg/kg/injection, schedule: Q01DX009 (ip), vehicle: Klucel (hydroxypropylcellulose) (HPC).
Setting [4] is: dose: 50.0 mg/kg/injection, schedule: Q01DX005 (ip), vehicle: saline.
Setting [5] is: dose: 100.0 mg/kg/injection, schedule: Q01DX005 (ip), vehicle: saline.
[6] abbreviates: dose: 60.0 mg/kg/injection, schedule: Q01DX005 (ip), vehicle: saline with Tween-80.
The mark [7] stands for this setting: dose: 120.0 mg/kg/injection, schedule: Q01DX005 (ip), vehicle: saline with Tween-80.
Setting [8] is: dose: 240.0 mg/kg/injection, schedule: Q01DX005 (ip), vehicle: saline with Tween-80.

“And” between values parts separate entries of the source, which are not always exact repeats. Equal entries are not always repeated. Toxic doses and inconclusive results are not listed.

With `CCOC1CC(C)(O)C(C(=O)OC)c2cc3c(c(O)c21)C(=O)c1c(O)cc2c(c1C3=O)OC1OC2(C)C(O)C(N(C)C)C1O` (centres undefined), the T/C by setting is: (dose: 3.16 mg/kg/injection, schedule: Q01DX009 (ip), vehicle: other) 151 % of control; (dose: 6.25 mg/kg/injection, schedule: Q01DX009 (ip), vehicle: other) 161 % of control; (dose: 12.5 mg/kg/injection, schedule: Q01DX009 (ip), vehicle: other) 171 % of control.

In the case of `O=[N+]([O-])c1cc(F)cc([N+](=O)[O-])c1O`, the T/C was 102 % of control (dose: 12.5 mg/kg/injection, schedule: Q01DX009 (ip), vehicle: Klucel (hydroxypropylcellulose) (HPC)); 102 % of control (dose: 25.0 mg/kg/injection, schedule: Q01DX009 (ip), vehicle: Klucel (hydroxypropylcellulose) (HPC)); 112 % of control under setting [1].

In the case of `CC1C(=O)C23CCC4C5(C)CCCC4(CN4CCOC45)C2CCC1C3` (centres undefined), the T/C (dose: 1.0 mg/kg/injection, schedule: Q01DX009 (ip), vehicle: Klucel (hydroxypropylcellulose) (HPC)) was 97 % of control; the T/C (dose: 2.0 mg/kg/injection, schedule: Q01DX009 (ip), vehicle: Klucel (hydroxypropylcellulose) (HPC)) was 95 % of control; the T/C (dose: 4.0 mg/kg/injection, schedule: Q01DX009 (ip), vehicle: Klucel (hydroxypropylcellulose) (HPC)) is 98 % of control; the T/C (dose: 8.0 mg/kg/injection, schedule: Q01DX009 (ip), vehicle: Klucel (hydroxypropylcellulose) (HPC)) is 103 % of control.

Take `Clc1ccc(NC2=NCCS2)cc1Cl`: the T/C reads like this: under setting [1], 103 % of control; under setting [2], 92 % of control; under setting [3], 101 % of control.

For `Cc1cccc(NC(=O)Oc2ccc(Cl)c3cccnc23)c1`, the T/C reads like this: under setting [1], 112 % of control; under setting [2], 102 % of control; under setting [3], 114 % of control.

As to `COc1ccc(C2CC(c3ccccc3)=Nc3ccccc3S2)cc1` (centres undefined), the T/C under setting [1] was 101 % of control, the T/C under setting [2] was 108 % of control and the T/C under setting [3] was 108 % of control.

Turning to `c1onc2c1C1CC3CC(C1)CC2C3`, the T/C was 96 % of control under setting [1], 89 % of control under setting [2] and 92 % of control under setting [3].

In the case of `CC1C(c2ccccc2)N(C)C(c2ccccc2)C(C)C1(O)c1ccccc1` (centres undefined), the T/C runs as follows: (dose: 50.0 mg/kg/injection, schedule: Q01DX005 (ip), vehicle: saline with Tween-80) 97 % of control; (dose: 100.0 mg/kg/injection, schedule: Q01DX005 (ip), vehicle: saline with Tween-80) 94 % of control; (dose: 200.0 mg/kg/injection, schedule: Q01DX005 (ip), vehicle: saline with Tween-80) 94 % of control.

`CC(N)C(=O)NC(Cc1ccccc1)C(=O)O` (centres undefined): the T/C by setting is: under setting [4], 101 % of control; under setting [5], 105 % of control; (dose: 200.0 mg/kg/injection, schedule: Q01DX005 (ip), vehicle: saline) 105 % of control.

For `O=C1C(O)=C(O)C(=O)C(O)=C1O`, the T/C by setting is: (dose: 50.0 mg/kg/injection, schedule: Q01DX009 (ip), vehicle: saline) 108 % of control; (dose: 100.0 mg/kg/injection, schedule: Q01DX009 (ip), vehicle: saline) 111 % of control; (dose: 200.0 mg/kg/injection, schedule: Q01DX009 (ip), vehicle: saline) 117 % of control.

In the case of `O=[N+]([O-])/C(=C/c1ccccc1)c1ccccc1`, the T/C is, setting by setting: (dose: 6.25 mg/kg/injection, schedule: Q01DX009 (ip), vehicle: saline with Tween-80) 109 % of control; (dose: 6.25 mg/kg/injection, schedule: Q04DX003 (ip), vehicle: saline with Tween-80) 109 % of control; (dose: 12.5 mg/kg/injection, schedule: Q01DX009 (ip), vehicle: saline with Tween-80) 118 % of control; (dose: 12.5 mg/kg/injection, schedule: Q04DX003 (ip), vehicle: saline with Tween-80) 100 % of control; (dose: 25.0 mg/kg/injection, schedule: Q01DX009 (ip), vehicle: saline with Tween-80) 118 % of control; (dose: 25.0 mg/kg/injection, schedule: Q04DX003 (ip), vehicle: saline with Tween-80) 113 % of control.

As for `Clc1ccc(OCSCOc2ccc(Cl)cc2Cl)c(Cl)c1`, the T/C is, setting by setting: under setting [1], 106 % of control; under setting [2], 99 % of control; under setting [3], 101 % of control.

In the case of `CCOC(=O)c1cnc2cc(C(F)(F)F)ccc2c1N=[N+]=[N-]`, the T/C was 99 % of control under setting [6], 96 % of control under setting [7] and 96 % of control under setting [8].

As for `Cc1ccc(C(=O)OC2C3(C)CCC(C3)C2(C)C)cc1` (centres undefined), the T/C was 100 % of control under setting [6], 100 % of control under setting [7] and 94 % of control under setting [8].

With `C/C(=N/NC(=O)Cc1ccccc1)C(=NO)/C(C)=N\NC(=O)Cc1ccccc1`, the T/C reads like this: (dose: 100.0 mg/kg/injection, schedule: Q04DX002 (ip), vehicle: saline) 101 % of control; (dose: 200.0 mg/kg/injection, schedule: Q04DX002 (ip), vehicle: saline) 108 % of control; (dose: 400.0 mg/kg/injection, schedule: Q04DX002 (ip), vehicle: saline) 116 % of control.

On to `CCCCOc1cccc2c(NCCCCCCNc3c4ccccc4nc4c(OCCCC)cccc34)c3ccccc3nc12`, for which the T/C (dose: 0.62 mg/kg/injection, schedule: Q## X009 (ip), vehicle: lactic acid) was 104 % of control; the T/C (dose: 1.25 mg/kg/injection, schedule: Q## X009 (ip), vehicle: lactic acid) was 104 % of control; the T/C (dose: 2.5 mg/kg/injection, schedule: Q## X009 (ip), vehicle: lactic acid) is 106 % of control; the T/C (dose: 5.0 mg/kg/injection, schedule: Q## X009 (ip), vehicle: lactic acid) is 99 % of control.

Turning to `CCOC(=O)/C=C(\C)N1CCCCC1`, the T/C (dose: 100.0 mg/kg/injection, schedule: Q04DX003 (ip), vehicle: saline) was 100 % of control; the T/C (dose: 200.0 mg/kg/injection, schedule: Q04DX003 (ip), vehicle: saline) was 100 % of control; the T/C (dose: 400.0 mg/kg/injection, schedule: Q04DX003 (ip), vehicle: saline) was 100 % of control.

Consider `C1=CC2C(c3cccc4ccccc34)O[C@H]2O1` (some centres undefined), for which the T/C was 97 % of control (dose: 7.5 mg/kg/injection, schedule: Q01DX005 (ip), vehicle: Klucel (hydroxypropylcellulose) (HPC)); 97 % of control (dose: 15.0 mg/kg/injection, schedule: Q01DX005 (ip), vehicle: Klucel (hydroxypropylcellulose) (HPC)); 97 % of control (dose: 30.0 mg/kg/injection, schedule: Q01DX005 (ip), vehicle: Klucel (hydroxypropylcellulose) (HPC)).

As for `C=C1C(=O)O[C@@H]2[C@H]3C(C)=CC[C@@H](OC(=O)/C(C)=C/C)[C@]3(C)[C@H](O)C[C@@H]12`, the T/C is 100 % of control (dose: 7.0 mg/kg/injection, schedule: Q01DX005 (ip), vehicle: Klucel (hydroxypropylcellulose) (HPC)); 100 % of control (dose: 14.0 mg/kg/injection, schedule: Q01DX005 (ip), vehicle: Klucel (hydroxypropylcellulose) (HPC)); 106 % of control (dose: 28.0 mg/kg/injection, schedule: Q01DX005 (ip), vehicle: Klucel (hydroxypropylcellulose) (HPC)); 105 % of control (dose: 56.0 mg/kg/injection, schedule: Q01DX005 (ip), vehicle: Klucel (hydroxypropylcellulose) (HPC)).

Turning to `CCC(c1ccc(O)cc1)c1cc2c(cc1OC)OCO2` (centres undefined), the T/C was 101 % of control (dose: 50.0 mg/kg/injection, schedule: Q01DX005 (ip), vehicle: distilled water + Tween-80); 96 % of control (dose: 100.0 mg/kg/injection, schedule: Q01DX005 (ip), vehicle: distilled water + Tween-80); 96 % of control (dose: 200.0 mg/kg/injection, schedule: Q01DX005 (ip), vehicle: distilled water + Tween-80).

`CC1=CC(=C2C(=O)c3ccccc3C2=O)C=C(C)N1CCN1CCCCC1`: the T/C by setting is: under setting [4], 98 % of control; (dose: 60.0 mg/kg/injection, schedule: Q01DX005 (ip), vehicle: Klucel (hydroxypropylcellulose) (HPC)) 90 % of control; under setting [5], 99 % of control; (dose: 120.0 mg/kg/injection, schedule: Q01DX005 (ip), vehicle: Klucel (hydroxypropylcellulose) (HPC)) 95 % of control.

On to `CN(C)CCCC[N+](C)(C)Cc1ccc(C[N+](C)(C)CCCC[N+](C)(C)Cc2ccc(CCl)cc2)cc1`, for which the T/C is, setting by setting: (dose: 3.12 mg/kg/injection, schedule: Q04DX003 (ip), vehicle: saline) 100 % of control; (dose: 6.25 mg/kg/injection, schedule: Q04DX003 (ip), vehicle: saline) 94 % of control; (dose: 12.5 mg/kg/injection, schedule: Q04DX003 (ip), vehicle: saline) 100 % of control and 111 % of control and 96 % of control; (dose: 25.0 mg/kg/injection, schedule: Q04DX003 (ip), vehicle: saline) 100 % of control and 113 % of control.

For the origin of these results see PubChem BioAssay AID330 (DTP/NCI, 2004).
